# Paper PMC10784468 (Nature Communications, 2024)
# Where two headings read alike, the source gives them in different places.
# Key:
# [1] = target: T1, GPX4 (Homo sapiens, UniProt P36969); experiment: Intracellular GPX4 activity detection; assay type: cell-based; parameters: endogenous in cells; host or cells: EJ bladder cancer cells
# T1 sequence (P36969 1-197): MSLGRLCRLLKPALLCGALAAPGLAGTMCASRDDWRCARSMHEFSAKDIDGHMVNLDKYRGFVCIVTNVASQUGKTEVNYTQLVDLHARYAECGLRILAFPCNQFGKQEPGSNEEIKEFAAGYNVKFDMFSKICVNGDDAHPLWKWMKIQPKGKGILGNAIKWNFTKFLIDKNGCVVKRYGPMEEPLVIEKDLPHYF
# Method: Initially, EJ cells (5 × 10^5) were cultured in 6-well plate with a CO2 incubator overnight at 37 °C. […] Next, EJ cells were collected and washed with PBS for 3 times. Afterwards, the cell lysates were collected by centrifugation at 5000 rpm for 10 min at 4 °C after ultrasonic lysis in an ice bath. Finally, the GPX4 activity were measured with a GPX Assay Kit based on the manufacturer’s instructions.
# [2] = test system: EJ cells; experiment: Intracellular Fe2+ ions detection; assay type: cell-based
# Method: Initially, EJ cells (5 × 10^5) were cultured in confocal dish with a CO2 incubator overnight at 37 °C. […] Afterwards, EJ cells were washed with PBS for 3 times and replaced with culture mediums.
# [3] = Particle size by DLS; assay type: physicochemical; settings: 40 μM, PBS 0.01 M, pH 6.5, with GPX4; Supplementary Fig. 18
# Method: Nano-ZS 3600 (Malvern Instruments, UK) was used to measure the size distribution of the peptide-porphyrin conjugate solutions. The conjugate solutions (40 μM) were incubated at pH 7.4 or pH 6.5 before measurements. An average value was determined by three repeated measurements at 25 °C for each sample. Besides, transmission electron microscopy (TEM, Tecnai G2 20 S-TWIN) was conducted to observe the morphology and diameters of conjugates in aqueous solution, The conjugates (50 μL, 40 μM) were kept in PB solution at pH 7.4 or pH 6.5, which were dropped on copper meshes. After 5 min, unnecessary liquid was removed and the uranyl acetate solution (10 μL) was dropped on this copper mesh to stain the samples for 10 min. Finally, the copper meshes were washed with deionized water, and dried at room temperature for observation.
# [4] = test system: HUVEC cells; assay type: cell-based; settings: for Cell viability of HUVEC: HUVEC cells, pH=7.4
# Method: Supplementary Fig. 27. Viability of HUVEC cells after treated with Gi -F (pH=7.4) and Gi-F-CAA (pH=7.4) at different
# concentrations for 48 h (n=3 experimental repeats). Experiment was independently repeated three times with
# (1 picture or pasted object on this page, not shown here)
# [5] = test system: GPX4 protein; experiment: Microscale Thermophoresis (MST) ligand binding; settings: for Fnorm (‰), MST original data: labelled GPX4
# Method: Initially, GPX4 was labeled using Protein Labeling Kit RED-NHS according to the manufacturer’s instructions to investigate the binding affinity of Gi-F-CAA, Gi-F and NGi-F-CAA with GPX4 protein. Afterward, the labelled GPX4 protein was incubated with series of Gi-F-CAA, Gi-F and NGi-F-CAA concentration gradients. Finally, the prepared samples were loaded into silica capillaries and measured with Monolish NT.115. Apparent Kd represented the affinity of assemblies rather than a single molecule. Bovine serum albumin (BSA) was used as control for calculating the apparent binding affinity between Gi-F (nanoparticle) to GPX4 protein. Briefly, as the diameter of nanoparticle is proportional to the molecular weight, according to the reported bovine serum albumin (BSA) protein size and molecular weight (7.2 nm, 66.43 KDa), the molecular weight of Gi-F nanoparticle with an average 78 nm size can be calculated to be […]. The monomer amount Gi-F nanoparticle was calculated as […].
substance,measurement,setting,value
"FeTCPP-LKLKLK(SA)GACNWLPLYPCPV (disulfide) [Gi-F-SA, control conjugate decorated with non-sensitive succinic anhydride (SA) moieties]",Relative activity of GPX4,"[1]; EJ cells, 8 h, pH 7.4, PBS group normalized as 1, #1",0.62
same,Relative activity of GPX4,"[1]; EJ cells, 8 h, pH 7.4, PBS group normalized as 1, #2",0.59
same,Relative activity of GPX4,"[1]; EJ cells, 8 h, pH 7.4, PBS group normalized as 1, #3",0.73
same,Relative activity of GPX4,"[1]; pH=7.4, replicate #1",0.61
same,Relative activity of GPX4,"[1]; pH=7.4, replicate #2",0.62
same,Relative activity of GPX4,"[1]; pH=7.4, replicate #3",0.66
same,"intracellular Fe^2+ (FerroOrange fluorescence), pH 7.4","[2]; EJ cells, pH 7.4, 8 h",no remarkable fluorescence
same,Concentrations of Fe2+ ions,"[2]; pH=7.4, replicate #1",13.222 ng/104cells
same,Concentrations of Fe2+ ions,"[2]; pH=7.4, replicate #2",11.221 ng/104cells
same,Concentrations of Fe2+ ions,"[2]; pH=7.4, replicate #3",12.7 ng/104cells
FeTCPP-LKLKLKGACNWLPLYPCPV (disulfide) [Gi-F],particle size (DLS) after incubation with GPX4,[3],~ 90 ± 9 nm
same,Cell viability of HUVEC,"[4]; log concentration (μM) 0, replicate 1",101.3%
same,Cell viability of HUVEC,"[4]; log concentration (μM) 0, replicate 2",99.35%
same,Cell viability of HUVEC,"[4]; log concentration (μM) 0, replicate 3",85.17%
same,Cell viability of HUVEC,"[4]; log concentration (μM) 0.30103, replicate 1",83.14%
same,Cell viability of HUVEC,"[4]; log concentration (μM) 0.30103, replicate 2",92.08%
same,Cell viability of HUVEC,"[4]; log concentration (μM) 0.30103, replicate 3",87.75%
same,Cell viability of HUVEC,"[4]; log concentration (μM) 0.60206, replicate 1",84.4%
same,Cell viability of HUVEC,"[4]; log concentration (μM) 0.60206, replicate 2",84.96%
same,Cell viability of HUVEC,"[4]; log concentration (μM) 0.60206, replicate 3",81.47%
same,Cell viability of HUVEC,"[4]; log concentration (μM) 0.90309, replicate 1",84.05%
same,Cell viability of HUVEC,"[4]; log concentration (μM) 0.90309, replicate 2",81.61%
same,Cell viability of HUVEC,"[4]; log concentration (μM) 0.90309, replicate 3",70.99%
same,Cell viability of HUVEC,"[4]; log concentration (μM) 1.20412, replicate 1",70.71%
same,Cell viability of HUVEC,"[4]; log concentration (μM) 1.20412, replicate 2",64.63%
same,Cell viability of HUVEC,"[4]; log concentration (μM) 1.20412, replicate 3",61.91%
same,Cell viability of HUVEC,"[4]; log concentration (μM) 1.50515, replicate 1",57.51%
same,Cell viability of HUVEC,"[4]; log concentration (μM) 1.50515, replicate 2",49.41%
same,Cell viability of HUVEC,"[4]; log concentration (μM) 1.50515, replicate 3",55.06%
same,Cell viability of HUVEC,"[4]; log concentration (μM) 1.80618, replicate 1",45.98%
same,Cell viability of HUVEC,"[4]; log concentration (μM) 1.80618, replicate 2",47.94%
same,Cell viability of HUVEC,"[4]; log concentration (μM) 1.80618, replicate 3",46.54%
same,Cell viability of HUVEC,"[4]; log concentration (μM) 2.10721, replicate 1",37.74%
same,Cell viability of HUVEC,"[4]; log concentration (μM) 2.10721, replicate 2",31.25%
same,Cell viability of HUVEC,"[4]; log concentration (μM) 2.10721, replicate 3",33.97%
same,Cell viability of HUVEC,"[4]; log concentration (μM) 2.40824, replicate 1",21.61%
same,Cell viability of HUVEC,"[4]; log concentration (μM) 2.40824, replicate 2",25.66%
same,Cell viability of HUVEC,"[4]; log concentration (μM) 2.40824, replicate 3",20.7%
same,cytotoxicity toward normal cells compared with Gi-F-CAA,[4]; pH 7.4,obvious increased cytotoxicity
same,"Fnorm (‰), MST original data",[5]; nanoparticle ligand concentration 3.07265e-11 (μM),857.598 ‰
same,"Fnorm (‰), MST original data",[5]; nanoparticle ligand concentration 6.14531e-11 (μM),848.131 ‰
same,"Fnorm (‰), MST original data",[5]; nanoparticle ligand concentration 1.22906e-10 (μM),859.494 ‰
same,"Fnorm (‰), MST original data",[5]; nanoparticle ligand concentration 2.45812e-10 (μM),850.692 ‰
same,"Fnorm (‰), MST original data",[5]; nanoparticle ligand concentration 4.91623e-10 (μM),861.283 ‰
same,"Fnorm (‰), MST original data",[5]; nanoparticle ligand concentration 9.8325e-10 (μM),853.275 ‰
same,"Fnorm (‰), MST original data",[5]; nanoparticle ligand concentration 1.9665e-9 (μM),865.165 ‰
same,"Fnorm (‰), MST original data",[5]; nanoparticle ligand concentration 3.933e-9 (μM),860.627 ‰
same,"Fnorm (‰), MST original data",[5]; nanoparticle ligand concentration 7.86601e-9 (μM),880.817 ‰
same,"Fnorm (‰), MST original data",[5]; nanoparticle ligand concentration 1.5732e-8 (μM),885.875 ‰
same,"Fnorm (‰), MST original data",[5]; nanoparticle ligand concentration 3.1464e-8 (μM),915.502 ‰
same,"Fnorm (‰), MST original data",[5]; nanoparticle ligand concentration 6.29279e-8 (μM),920.264 ‰
same,"Fnorm (‰), MST original data",[5]; nanoparticle ligand concentration 1.25856e-7 (μM),943.293 ‰
same,"Fnorm (‰), MST original data",[5]; nanoparticle ligand concentration 2.51712e-7 (μM),935.723 ‰
same,"Fnorm (‰), MST original data",[5]; nanoparticle ligand concentration 5.03423e-7 (μM),956.979 ‰
same,"Fnorm (‰), MST original data",[5]; nanoparticle ligand concentration 1.00685e-6 (μM),946.244 ‰
same,increase of binding affinity to GPX4 versus Gi-F-CAA,[5]; ratio of MST Kd values,~ 55 times
